Each structure is given as a SMILES string.

One test deals with NF-κB. The experiment in a line: Western blot of NF-κB. The class given is cell-based. As to conditions: LPS stimulation. The procedure: Human polymorphonuclear leukocytes (PMNLs; 50 × 10^6), isolated from whole blood, were resuspended in 1 mL of cold PGC buffer. Briefly, neutrophils were pre-incubated for 15 min at 37 °C with test compounds (1 μM). […] The samples were subsequent centrifuged (1200g, 10 min) and the pellets were resuspended in 100 μL od SDS-PAGE loading buffer (2x) (Tris 1 M pH 8, EDTA 0.2 M, 10 % SDS, 10 % mercaptoethanol). Correct protein loading on the gels and transfer of proteins to the nitrocellulose membrane were confirmed by Ponceau staining. Membranes with transferred proteins were incubated overnight with primary antibodies in 1x Tris Buffered Saline (TBS) with 1 % Casein (Biorad- #1610782). Membranes were then washed and incubated with horseradish peroxidase-conjugated secondary antibodies for 1 h at room temperature. Blots were developed using enhanced chemiluminescence detection reagents ECL (Immobilion ECL Ultra Western HRP Substrate - Cat# WBULS0500 Millipore) and acquired using ChemiDoc Imaging System (BioRad). Antibody recognizing phosphorylated p38-MAPkinase, pERK, ERK, NfKB were from Cell Signalling Technology (Boston, MA) and used at 1:1000 dilution. Secondary antibodies were purchased from Biorad (170–6515; 170–6516) and used at 1:2000 diluition.

In the next test the target is T1, 5-LO (Homo sapiens, UniProt P09917).
T1 sequence (P09917 1-674): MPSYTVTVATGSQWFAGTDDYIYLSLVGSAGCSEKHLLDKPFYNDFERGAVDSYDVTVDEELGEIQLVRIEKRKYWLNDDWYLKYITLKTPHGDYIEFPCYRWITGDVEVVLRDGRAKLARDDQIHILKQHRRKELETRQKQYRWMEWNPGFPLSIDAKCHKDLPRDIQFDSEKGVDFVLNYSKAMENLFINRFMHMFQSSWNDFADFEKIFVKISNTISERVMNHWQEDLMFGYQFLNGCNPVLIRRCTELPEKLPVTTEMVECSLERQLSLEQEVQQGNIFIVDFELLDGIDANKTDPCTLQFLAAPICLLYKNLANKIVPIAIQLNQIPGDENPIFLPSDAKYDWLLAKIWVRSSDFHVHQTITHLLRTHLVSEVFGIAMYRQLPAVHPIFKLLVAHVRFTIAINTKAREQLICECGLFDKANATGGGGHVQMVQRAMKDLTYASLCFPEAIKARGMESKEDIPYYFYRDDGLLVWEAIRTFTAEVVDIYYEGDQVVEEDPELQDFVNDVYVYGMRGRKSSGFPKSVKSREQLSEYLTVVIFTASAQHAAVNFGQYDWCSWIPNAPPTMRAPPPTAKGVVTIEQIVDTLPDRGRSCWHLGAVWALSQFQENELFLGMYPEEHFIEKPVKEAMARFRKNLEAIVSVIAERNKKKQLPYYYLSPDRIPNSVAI
The experiment in a line: cell-free 5-LO activity assay with purified human recombinant 5-LO. Also on record: made in house. The test is classed as biochemical. Conditions: for mechanism of 5-LO inhibition versus substrate AA: AA 2.5, 5, 10, 20, 40 and 80 μM; for mechanism of 5-LO inhibition versus substrate AA / AA concentration at which maximal inhibitory potency was reached: isolated 5-LO; for AA concentration at which maximal inhibitory potency was reached: varying AA. The procedure:
5-LO was expressed in E. coli B121 (DE3) transformed with pT3- 5LO plasmid, and purification of 5-LO was performed as described previously. Briefly, E. coli was lysed in 50 mM tri-ethanolamine/HCl, pH 8.0, 5 mM EDTA, […] soybean trypsin inhibitor, 1 mM phenylmethanesulfonyl fluoride, 1 mM dithiothreitol and 1 mg/mL lysozyme and then sonified (3 × 15 s). The homogenate was then centrifuged at 40,000g for 20 min at 4°C. 5-LO in the supernatant was partially purified by affinity chromatography on an ATP-agarose column (Sigma-Aldrich). Semi-purified 5-LO was diluted in PBS containing EDTA (1 mM) and ATP (1 mM) and immediately used for 5-LO activity assays. Samples were pre-incubated with the test compounds or vehicle (0.1 % DMSO) for 10 min at 4°C. Samples were pre-warmed for 30 s at 37°C, and 2 mM CaCl2 plus the indicated concentrations of AA were added to start 5-LO product formation. The reaction was stopped after 10 min by addition of one volume of ice-cold methanol, and the formed metabolites were analyzed by HPLC. 5- LO products include the all-trans isomers of LTB4 as well as 5-HPETE and its corresponding alcohol 5-HETE.

As for `CCCC/C=C\CCCCCCCCCc1cccc(O)c1O` [CI, (Z)-3-(pentadec-10′-enyl)-catechol], the “NF-κB expression (Western blot)” value with NF-κB is on record as “most pronounced effect”. At 5-LO, the IC50 (commonly the midpoint of a concentration-inhibition curve) came out at 60 ± 40 nM, the “mechanism of 5-LO inhibition versus substrate AA” value is “excluding a substrate competitive mechanism” and the “AA concentration at which maximal inhibitory potency was reached” value came out at 20000 nM.
On to `CCCCCCCCCCCCCCCc1cccc(O)c1O` [CS, 3-n-pentadecylcatechol], for which, on 5-LO, the IC50 is 150 nM, the “mechanism of 5-LO inhibition versus substrate AA” value is recorded as “not competitive” and the “AA concentration at which maximal inhibitory potency was reached” value was found to be 2500 nM.

The values above are taken from PMC12523804, “Evaluation of molecular mechanisms of (Z)-3-(pentadec-10′-enyl)-catechol (litreol) and synthetic derivatives as inhibitors of human leukotriene biosynthesis” (Redox Biology, 2025).
